In BigSolDB 2.1:

CC(=O)N1CN(C(C)=O)CN(C(C)=O)C1
solubility (mole fraction)
Settings	298 K	303 K	308 K	313 K	318 K
in acetonitrile	0.0478	0.0695	0.102	0.142	0.202
in ethyl acetate	0.0153	0.0178	0.0198	0.0236	0.0271
in methanol	0.204	0.238	0.283	0.335	0.395
in water	0.00434	0.00612	0.0085	0.0125	0.018
